Legend:
[1] = microbe, parasite or virus in culture; conditions: Mycobacterium tuberculosis, 72 h, read-out: pIC50 (converted)
[2] = microbe, parasite or virus in culture; conditions: Mycobacterium tuberculosis, 96 h, read-out: pIC50 (converted)

Row | SMILES | IC50 [1] [µM] | IC50 [2] [µM]
1 | O=C(Nc1cc(Cl)ccc1F)C1=COCCO1 | 228 | 265
2 | O=C(Cn1ccc(C(F)(F)F)n1)Nc1ccccn1 | 224 | > 501
3 | COc1ccc(S(=O)(=O)Nc2cccc(CN)c2)cc1 | 162 | > 501
4 | N#Cc1ccc(S(=O)(=O)NCCN)cc1C(F)(F)F | 160 | 223
5 | O=C(CC1COCCN1Cc1ccon1)c1cccs1 (stereo not drawn) | 172 | > 501
6 | N#Cc1ccc(OCCCN2CCNC(=O)C2)cc1 | 233 | 290
7 | CN(C)c1cc(C(=O)Nc2ccccc2F)ccn1 | 237 | 321
8 | CN(Cc1ccsc1)Cc1ccc(S(=O)(=O)N(C)C)o1 | > 501 | 86.4
9 | Cc1cccc(NC(=O)CN(C)Cc2nnsc2Cl)n1 | 246 | > 501
10 | CCOCC(=O)NC(C)c1c(F)cccc1OC (stereo not drawn) | 178 | 277
11 | Cn1cc(CNC(=O)C2CSc3ccccc3O2)cn1 (stereo not drawn) | 218 | > 501
12 | NCCNS(=O)(=O)c1ccc(F)c(Br)c1 | > 501 | > 501
13 | CCC(N)C(=O)N1CCN(c2ccc(F)cc2Cl)CC1 (stereo not drawn) | 322 | 266
14 | CC1CCC(NC(=O)Cn2cnc(C#N)n2)CC1 (stereo not drawn) | 101 | 98.1
15 | COc1cc(Cl)ccc1CN | > 501 | 279
16 | Cc1oc(C)c(C(=O)NCC(=O)N2CCCC2)c1C | > 501 | > 501
17 | CN1CN(Cc2ccc(Cl)o2)CC1=O | > 501 | > 501
18 | COCc1nn(Cc2csc(C(C)C)n2)c(=O)o1 | 14.9 | 22.5
19 | CN(C)C(CN)c1cccc(F)c1 (stereo not drawn) | > 501 | > 501
20 | Cc1ccc(NCc2cccc(O)c2)cc1S(C)(=O)=O | 89.7 | 333
21 | O=C(c1cc(C2CC2)on1)N1CCCN(C2CC2)CC1 | > 501 | > 501
22 | CC1Cc2ccccc2N1CCN (stereo not drawn) | 172 | 204
23 | COC(=O)N1CCC(Nc2nnc(C(F)(F)F)s2)CC1 | 160 | 230
24 | C=C(C)CCOC(=O)c1ccc(CS(C)(=O)=O)cc1 | 275 | 258
25 | CCC(N)c1cnn(CC)c1 (stereo not drawn) | > 501 | > 501
26 | CC(Oc1ccc2c(c1)OCO2)C(=O)NC1CC1 (stereo not drawn) | > 501 | > 501
27 | CCNc1ncc(C(=O)N2CCCCC2)s1 | 377 | > 501

Row | SMILES | IC50 [1] [µM] | IC50 [2] [µM]
28 | Cc1c(CN2CCSCC2)cccc1NS(C)(=O)=O | > 501 | > 501
29 | CC(Nc1ccc(OC(F)F)cn1)c1ccncc1 (stereo not drawn) | 195 | 246
30 | COc1ccc(-c2noc(C3(O)CCCC3)n2)cn1 | 282 | 104
31 | O=C1CCCCN1Cn1cc(I)cn1 | 251 | 318
32 | CCc1cccc2c1N(C(=O)CNC)CC2 | 367 | > 501
33 | COc1ccc(CCSc2nnc[nH]2)cc1 | 142 | 111
34 | N#Cc1ccc(S(=O)(=O)NCCCN)cc1C(F)(F)F | 205 | > 501
35 | Cc1ncc(CN(C)CC(O)COCc2ccco2)s1 (stereo not drawn) | > 501 | > 501
36 | CCN(C)S(=O)(=O)N(CC)CC(O)c1ccc(C)cc1 (stereo not drawn) | 334 | 293
37 | CCC(C)NC(=O)c1cc(F)cc(F)c1 (stereo not drawn) | 130 | 229
38 | Cc1ccc(F)c(CN2CC[C@H](N)C2)c1 | 213 | 225
39 | COCc1nn(CCC2CCCC2)c(=O)o1 | 68.2 | 86.6
40 | CC(C)c1cc(C(=O)N[C@@H]2CCOC[C@H]2O)cs1 | > 501 | > 501
41 | CCOCC(=O)NCC1(O)CCCc2ccccc21 (stereo not drawn) | 83.9 | 231
42 | CNC(=O)NC(=O)CCN1CCN(S(C)(=O)=O)CC1 | 245 | > 501
43 | CS(=O)(=O)NCC1CCCN(c2ncc(Cl)cc2F)C1 (stereo not drawn) | 159 | > 501
44 | CCOc1ccc(Cn2nc(COC)oc2=O)nc1 | 246 | 19.1
45 | NCC(O)c1ccc(Cl)cc1Cl (stereo not drawn) | 304 | > 501
46 | CC1CN(CCC(=O)NC(N)=O)CCO1 (stereo not drawn) | 80.3 | 286
47 | CNCC(=O)NCCc1c(OC)ccc2ccccc12 | 411 | > 501
48 | CCC(CNS(=O)(=O)N(C)CC)c1ccccc1 (stereo not drawn) | 249 | > 501
49 | O=C(NCCOc1ncccc1Cl)c1cc(Cl)c[nH]1 | 188 | 287
50 | Cc1nc(Cn2cc(S(=O)(=O)N(C)C)ccc2=O)cs1 | 326 | > 501
51 | COc1cc(NC(=O)NCc2nncn2C)ccc1Br | 218 | > 501
52 | CC(CNC(=O)c1ccncc1)c1ccccc1 (stereo not drawn) | 189 | > 501
53 | NCCCc1ccccn1 | > 501 | > 501
54 | O=C(Cn1cc(Br)cn1)Nc1ccc2c(c1)OCCO2 | 220 | 247
